Test results reported in ChEMBL document CHEMBL5500384, “New synergistic benzoquinone scaffolds as inhibitors of mycobacterial cytochrome bc1 complex to treat multi-drug resistant tuberculosis” (Eur J Med Chem, 2024).
Values after ≈ are worked out from the molar mass of the structure shown.

What was measured:
[1] = system: Mycolicibacterium smegmatis; test: Antibacterial activity against Mycobacterium smegmatis ATCC 14468 assessed as log2 fold change in l-tyrosine metabolite level by mass spectrometry analysis; assay type: functional
[2] = Hepatotoxicity in Albino mouse assessed as change in bile duct at 50 to 2000 mg/kg, po measured after 14 days; assay type: toxicity, organism-based, Liver; settings: in vivo, 336 h, dose 50-2000 mg/kg, time 14 day
[3] = system: Mycolicibacterium smegmatis; test: Antibacterial activity against Mycobacterium smegmatis ATCC 14468 assessed as log2 fold change in PknH_C domain-containing protein expression at 3 ug/ml incubated for 12 hrs by mass spectrometric analysis; assay type: functional; settings: dose 3 µg/ml
[4] = system: Mycolicibacterium smegmatis; test: Antibacterial activity against Mycobacterium smegmatis ATCC 14468 assessed as log2 fold change in integral membrane protein expression at 3 ug/ml incubated for 12 hrs by mass spectrometric analysis; assay type: functional; settings: dose 3 µg/ml
[5] = system: Mycolicibacterium smegmatis; test: Antibacterial activity against Mycobacterium smegmatis ATCC 14468 assessed as log2 fold change in histidine kinase expression at 3 ug/ml incubated for 12 hrs by mass spectrometric analysis; assay type: functional; settings: dose 3 µg/ml
[6] = system: Mycolicibacterium smegmatis; test: Antibacterial activity against Mycobacterium smegmatis ATCC 14468 assessed as log2 fold change in citrate transporter expression at 3 ug/ml incubated for 12 hrs by mass spectrometric analysis; assay type: functional; settings: dose 3 µg/ml
[7] = system: Mycolicibacterium smegmatis; test: Antibacterial activity against Mycobacterium smegmatis ATCC 14468 assessed as log2 fold change in GluD expression at 3 ug/ml incubated for 12 hrs by mass spectrometric analysis; assay type: functional; settings: dose 3 µg/ml
[8] = system: Mycolicibacterium smegmatis; test: Antibacterial activity against Mycobacterium smegmatis ATCC 14468 assessed as log2 fold change in ABC transporter ATP binding protein expression at 3 ug/ml incubated for 12 hrs by mass spectrometric analysis; assay type: functional; settings: dose 3 µg/ml
[9] = Pulmonary toxicity in Albino mouse assessed as appearance of goblet cells at 50 to 2000 mg/kg, po measured after 14 days; assay type: organism-based; settings: in vivo, 336 h, dose 50-2000 mg/kg, time 14 day
[10] = system: Mycolicibacterium smegmatis; test: Antibacterial activity against Mycobacterium smegmatis ATCC 14468 assessed as log2 fold change in shikimate transporter expression at 3 ug/ml incubated for 12 hrs by mass spectrometric analysis; assay type: functional; settings: dose 3 µg/ml
[11] = system: Mycolicibacterium smegmatis; test: Antibacterial activity against Mycobacterium smegmatis ATCC 14468 assessed as log2 fold change in methylase expression at 3 ug/ml incubated for 12 hrs by mass spectrometric analysis; assay type: functional; settings: dose 3 µg/ml
[12] = Renal toxicity in Albino mouse assessed as change in proximal convoluted tubules at 50 to 2000 mg/kg, po measured after 14 days; assay type: organism-based; settings: in vivo, 336 h, dose 50-2000 mg/kg, time 14 day
[13] = Cytotoxicity against african green monkey Vero cells assessed as cell viability at 12.5 ug/ml by MTT assay; assay type: toxicity, cell-based; settings: chlorocebus sabaeus, at 12.5 µg/mL, read-out: Activity
[14] = system: Mycolicibacterium smegmatis; test: Antibacterial activity against Mycobacterium smegmatis ATCC 14468 assessed as log2 fold change in membrane transport protein expression at 3 ug/ml incubated for 12 hrs by mass spectrometric analysis; assay type: functional; settings: dose 3 µg/ml
[15] = system: Mycolicibacterium smegmatis; test: Antibacterial activity against Mycobacterium smegmatis ATCC 14468 assessed as log2 fold change in transposase expression at 3 ug/ml incubated for 12 hrs by mass spectrometric analysis; assay type: functional; settings: dose 3 µg/ml
[16] = Pulmonary toxicity in Albino mouse assessed as appearance of cilia at 50 to 2000 mg/kg, po measured after 14 days; assay type: organism-based; settings: in vivo, 336 h, dose 50-2000 mg/kg, time 14 day
[17] = Cytotoxicity against african green monkey Vero cells assessed as cell viability at 3.125 ug/ml by MTT assay; assay type: toxicity, cell-based; settings: chlorocebus sabaeus, at 3.125 µg/mL, read-out: Activity
[18] = Cytotoxicity against african green monkey Vero cells assessed as cell viability at 6.25 ug/ml by MTT assay; assay type: toxicity, cell-based; settings: chlorocebus sabaeus, at 6.25 µg/mL, read-out: Activity
[19] = system: Mycolicibacterium smegmatis; test: Antibacterial activity against Mycobacterium smegmatis ATCC 14468 assessed as log2 fold change in beta-alanine metabolite level by mass spectrometry analysis; assay type: functional
[20] = system: Mycolicibacterium smegmatis; test: Antibacterial activity against Mycobacterium smegmatis ATCC 14468 assessed as log2 fold change in DppB expression at 3 ug/ml incubated for 12 hrs by mass spectrometric analysis; assay type: functional; settings: dose 3 µg/ml
[21] = system: Mycolicibacterium smegmatis; test: Antibacterial activity against Mycobacterium smegmatis ATCC 14468 assessed as log2 fold change in MmpL protein expression at 3 ug/ml incubated for 12 hrs by mass spectrometric analysis; assay type: functional; settings: dose 3 µg/ml
[22] = Acute toxicity in Albino mouse assessed as change in serum creatine level at 50 to 2000 mg/kg, po measured after 14 days (reference value: 0.9 mg/dl); assay type: organism-based; settings: in vivo, 336 h, dose 50-2000 mg/kg, time 14 day
[23] = system: Mycolicibacterium smegmatis; test: Antibacterial activity against Mycobacterium smegmatis ATCC 14468 assessed as log2 fold change in l-Glutathione oxidized metabolite level by mass spectrometry analysis; assay type: functional
[24] = Pulmonary toxicity in Albino mouse assessed as change in alveolar sacs at 50 to 2000 mg/kg, po measured after 14 days; assay type: organism-based; settings: in vivo, 336 h, dose 50-2000 mg/kg, time 14 day
[25] = Hepatotoxicity in Albino mouse assessed as change in portal vein at 50 to 2000 mg/kg, po measured after 14 days; assay type: toxicity, organism-based; settings: in vivo, 336 h, dose 50-2000 mg/kg, time 14 day
[26] = system: Mycolicibacterium smegmatis; test: Antibacterial activity against Mycobacterium smegmatis ATCC 14468 assessed as log2 fold change in probable cytochrome c oxidase subunit 3 expression at 3 ug/ml incubated for 12 hrs by mass spectrometric analysis; assay type: functional; settings: dose 3 µg/ml
[27] = system: Mycolicibacterium smegmatis; test: Antibacterial activity against Mycobacterium smegmatis ATCC 14468 assessed as log2 fold change in TnpC protein expression at 3 ug/ml incubated for 12 hrs by mass spectrometric analysis; assay type: functional; settings: dose 3 µg/ml
[28] = Acute toxicity in Albino mouse assessed as change in eosinophils at 50 to 2000 mg/kg, po measured after 14 days (reference value: 3%); assay type: organism-based; settings: in vivo, 336 h, dose 50-2000 mg/kg, time 14 day
[29] = system: Mycolicibacterium smegmatis; test: Antibacterial activity against Mycobacterium smegmatis ATCC 14468 assessed as log2 fold change in L-(-)-methionine metabolite level by mass spectrometry analysis; assay type: functional
[30] = Acute toxicity in Albino mouse assessed as change in ESR at 50 to 2000 mg/kg, po measured after 14 days (reference value: 10 millimeter); assay type: organism-based; settings: in vivo, 336 h, dose 50-2000 mg/kg, time 14 day
[31] = Renal toxicity in Albino mouse assessed as change in tubular capillaries at 50 to 2000 mg/kg, po measured after 14 days; assay type: organism-based; settings: in vivo, 336 h, dose 50-2000 mg/kg, time 14 day
[32] = Cytotoxicity against african green monkey Vero cells assessed as cell viability at 100 ug/ml by MTT assay; assay type: toxicity, cell-based; settings: chlorocebus sabaeus, at 100 µg/mL, read-out: Activity
[33] = system: Mycobacterium tuberculosis; test: Antitubercular activity against Mycobacterium tuberculosis H37Rv incubated for 5 days by microtiter plate method; assay type: functional; settings: 120 h, time 5 day
[34] = system: Mycolicibacterium smegmatis; test: Antibacterial activity against Mycobacterium smegmatis ATCC 14468 assessed as log2 fold change in N-Acetyl-l-glutamic acid metabolite level by mass spectrometry analysis; assay type: functional
[35] = Acute toxicity in Albino mouse assessed as change in SGPT count at 50 to 2000 mg/kg, po measured after 14 days (reference value: 52 IU/L); assay type: organism-based; settings: in vivo, 336 h, dose 50-2000 mg/kg, time 14 day
[36] = system: Mycolicibacterium smegmatis; test: Antibacterial activity against Mycobacterium smegmatis ATCC 14468 assessed as log2 fold change in l-Glutamic acid metabolite level by mass spectrometry analysis; assay type: functional
[37] = Renal toxicity in Albino mouse assessed as structural absorbability abnormalities at 50 to 2000 mg/kg, po measured after 14 days; assay type: organism-based; settings: in vivo, 336 h, dose 50-2000 mg/kg, time 14 day
[38] = Cytotoxicity against african green monkey Vero cells assessed as cell viability at 50 ug/ml by MTT assay; assay type: toxicity, cell-based; settings: chlorocebus sabaeus, at 50 µg/mL, read-out: Activity
[39] = Pulmonary toxicity in Albino mouse assessed as change in squamous pneumocytes at 50 to 2000 mg/kg, po measured after 14 days; assay type: organism-based; settings: in vivo, 336 h, dose 50-2000 mg/kg, time 14 day

| SMILES | log2FC [1] | Activity [2] | log2FC [3] | log2FC [4] | log2FC [5] | log2FC [6] | log2FC [7] | log2FC [8] | Activity [9] | log2FC [10] | log2FC [11] | Activity [12] | viability at 12.5 ug/ml [13] [%] | log2FC [14] | log2FC [15] | Activity [16] | viability at 3.125 ug/ml [17] [%] | viability at 6.25 ug/ml [18] [%] | log2FC [19] | log2FC [20] | other results |
| --- | --- | --- | --- | --- | --- | --- | --- | --- | --- | --- | --- | --- | --- | --- | --- | --- | --- | --- | --- | --- | --- |
| COc1ccc(C2C(Cl)C(=O)N2C2=C(Cl)C(=O)c3ccccc3C2=O)cc1 (configuration not stated) | -1.68 | Non-Toxic | -6.64 | -6.64 | -6.64 | -1.76 | -1.11 | -1.98 | Non-Toxic | -6.64 | -6.64 | Non-Toxic | 68.1 | -6.64 | -1.22 | Non-Toxic | 100 | 100 | -2.47 | -6.64 | log2FC [21]: -1.45; Activity [22]: 0.8 mg/dL; log2FC [23]: -1.04; Activity [24]: Non-Toxic; Activity [25]: Non-Toxic; log2FC [26]: 2.57; log2FC [27]: -6.64; Activity [28]: 4%; log2FC [29]: -5.44; Activity [30]: 15 millimeter/hr; Activity [31]: Non-Toxic; viability at 100 ug/ml [32]: 0.7%; MIC [33]: 31.1 µM (≈ 12.5 µg/mL); log2FC [34]: -1.34; Activity [35]: 64 IU/L; log2FC [36]: -1.49; Activity [37]: Non-Toxic; viability at 50 ug/ml [38]: 8.7%; Activity [39]: Non-Toxic |
| O=C1C(Cl)=C(Cl)C(=O)c2ccccc21 [Dichlon] | -1.18 | Non-Toxic | -6.64 | -6.64 | -6.64 | -3.36 | -3.7 | -2.17 | Non-Toxic | -6.64 | -1.53 | Non-Toxic | 100 | -1.79 | -1.92 | Non-Toxic | 100 | 100 | -1 | -6.64 | log2FC [21]: -6.64; Activity [22]: 0.8 mg/dL; log2FC [23]: -2.01; Activity [24]: Non-Toxic; Activity [25]: Non-Toxic; log2FC [26]: 2.56; log2FC [27]: -2.19; Activity [28]: 3%; log2FC [29]: -3.97; Activity [30]: 20 millimeter/hr; Activity [31]: Non-Toxic; viability at 100 ug/ml [32]: 28.7%; MIC [33]: 13.8 µM (≈ 3.12 µg/mL); log2FC [34]: -0.61; Activity [35]: 17 IU/L; log2FC [36]: -1.59; Activity [37]: Non-Toxic; viability at 50 ug/ml [38]: 36.1%; Activity [39]: Non-Toxic |
| CN(C)c1ccc(C2C(Cl)C(=O)N2C2=C(Cl)C(=O)c3ccccc3C2=O)cc1 (configuration not stated) | -1.13 | Non-Toxic | -6.64 | -1.06 | -6.64 | -1.02 | -1.78 | -6.64 | Non-Toxic | -6.64 | -1.9 | Non-Toxic | 79.5 | -6.64 | -6.64 | Non-Toxic | 100 | 100 | -1.29 | -6.64 | log2FC [21]: -6.64; Activity [22]: 0.7 mg/dL; log2FC [23]: -1.8; Activity [24]: Non-Toxic; Activity [25]: Non-Toxic; log2FC [26]: 2.37; log2FC [27]: -6.64; Activity [28]: 5%; log2FC [29]: -4.48; Activity [30]: 16 millimeter/hr; Activity [31]: Non-Toxic; viability at 100 ug/ml [32]: 10.2%; MIC [33]: 15.1 µM (≈ 6.25 µg/mL); log2FC [34]: -1.04; Activity [35]: 73 IU/L; log2FC [36]: -0.85; Activity [37]: Non-Toxic; viability at 50 ug/ml [38]: 25.4%; Activity [39]: Non-Toxic |
